# Laboratory results taken from ChEMBL document CHEMBL1145498, “A systematic interaction map of validated kinase inhibitors with Ser/Thr kinases” (Proc Natl Acad Sci U S A, 2007).
# How the values were obtained:
# [1] = target: T1, Serine/threonine-protein kinase Chk1 (Homo sapiens, UniProt O14757); test: Inhibition of Chk1
# T1 sequence (O14757 whole entry): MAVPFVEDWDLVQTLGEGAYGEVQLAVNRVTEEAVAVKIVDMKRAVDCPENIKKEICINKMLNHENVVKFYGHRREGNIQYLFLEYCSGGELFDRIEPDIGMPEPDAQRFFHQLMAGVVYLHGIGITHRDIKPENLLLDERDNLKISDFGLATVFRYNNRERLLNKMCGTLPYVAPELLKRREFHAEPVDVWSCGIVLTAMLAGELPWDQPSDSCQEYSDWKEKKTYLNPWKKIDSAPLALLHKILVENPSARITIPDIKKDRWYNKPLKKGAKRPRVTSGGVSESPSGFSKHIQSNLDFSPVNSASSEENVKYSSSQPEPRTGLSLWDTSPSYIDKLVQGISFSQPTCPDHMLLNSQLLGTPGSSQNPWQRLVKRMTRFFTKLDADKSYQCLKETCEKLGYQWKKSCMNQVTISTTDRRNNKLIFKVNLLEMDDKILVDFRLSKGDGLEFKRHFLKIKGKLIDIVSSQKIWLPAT
# [2] = target: Calcium/calmodulin-dependent protein kinase type 1D (Homo sapiens) (UniProt Q8IU85)
# [3] = target: T2, Myotonin-protein kinase (Homo sapiens) (UniProt Q09013)
# T2 sequence (whole entry): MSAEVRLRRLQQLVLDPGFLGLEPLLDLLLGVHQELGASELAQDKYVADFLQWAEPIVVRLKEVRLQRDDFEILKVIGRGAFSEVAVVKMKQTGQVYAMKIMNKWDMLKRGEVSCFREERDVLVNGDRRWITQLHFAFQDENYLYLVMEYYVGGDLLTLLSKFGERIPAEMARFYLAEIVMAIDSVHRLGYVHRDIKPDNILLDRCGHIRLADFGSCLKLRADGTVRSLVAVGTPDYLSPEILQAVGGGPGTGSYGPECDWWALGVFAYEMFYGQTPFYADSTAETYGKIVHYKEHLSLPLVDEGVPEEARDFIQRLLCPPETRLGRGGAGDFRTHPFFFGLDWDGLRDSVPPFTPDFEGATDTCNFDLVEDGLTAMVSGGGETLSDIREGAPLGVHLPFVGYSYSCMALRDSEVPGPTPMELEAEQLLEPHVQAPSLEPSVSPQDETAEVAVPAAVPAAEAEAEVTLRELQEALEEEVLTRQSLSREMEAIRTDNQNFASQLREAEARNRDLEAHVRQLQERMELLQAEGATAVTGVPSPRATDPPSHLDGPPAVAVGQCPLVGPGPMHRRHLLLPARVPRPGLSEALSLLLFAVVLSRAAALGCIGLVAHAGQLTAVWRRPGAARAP
# [4] = target: T3, Serine/threonine-protein kinase 4 (Homo sapiens) (UniProt Q13043)
# T3 sequence (whole entry): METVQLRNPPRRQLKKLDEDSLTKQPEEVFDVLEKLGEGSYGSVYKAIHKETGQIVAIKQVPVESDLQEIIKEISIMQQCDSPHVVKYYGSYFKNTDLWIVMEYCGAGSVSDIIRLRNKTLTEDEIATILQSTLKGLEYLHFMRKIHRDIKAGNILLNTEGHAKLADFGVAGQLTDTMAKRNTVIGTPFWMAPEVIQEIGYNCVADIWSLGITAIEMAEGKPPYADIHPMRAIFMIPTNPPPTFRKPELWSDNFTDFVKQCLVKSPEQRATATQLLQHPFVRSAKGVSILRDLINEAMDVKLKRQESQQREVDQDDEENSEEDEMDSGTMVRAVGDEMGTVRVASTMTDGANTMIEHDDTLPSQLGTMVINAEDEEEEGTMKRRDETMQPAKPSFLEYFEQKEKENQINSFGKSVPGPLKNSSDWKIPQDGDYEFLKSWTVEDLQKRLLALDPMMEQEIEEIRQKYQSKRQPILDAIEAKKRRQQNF
# [5] = target: T4, Serine/threonine-protein kinase VRK1 (Homo sapiens) (UniProt Q99986)
# T4 sequence (whole entry): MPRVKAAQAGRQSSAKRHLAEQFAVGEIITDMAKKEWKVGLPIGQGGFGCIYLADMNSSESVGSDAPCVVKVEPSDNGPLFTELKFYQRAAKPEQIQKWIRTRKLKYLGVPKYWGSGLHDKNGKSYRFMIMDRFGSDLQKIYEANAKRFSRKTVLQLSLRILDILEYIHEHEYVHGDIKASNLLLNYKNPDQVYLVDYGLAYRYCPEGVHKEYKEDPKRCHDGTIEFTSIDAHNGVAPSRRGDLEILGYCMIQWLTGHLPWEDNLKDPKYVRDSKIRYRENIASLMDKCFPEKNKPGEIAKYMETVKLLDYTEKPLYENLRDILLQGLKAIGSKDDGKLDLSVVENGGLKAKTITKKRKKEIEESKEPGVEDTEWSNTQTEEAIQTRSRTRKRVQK
# Calcium/calmodulin-dependent protein kinase type 1D (Homo sapiens), sequence (Q8IU85 whole entry, looked up): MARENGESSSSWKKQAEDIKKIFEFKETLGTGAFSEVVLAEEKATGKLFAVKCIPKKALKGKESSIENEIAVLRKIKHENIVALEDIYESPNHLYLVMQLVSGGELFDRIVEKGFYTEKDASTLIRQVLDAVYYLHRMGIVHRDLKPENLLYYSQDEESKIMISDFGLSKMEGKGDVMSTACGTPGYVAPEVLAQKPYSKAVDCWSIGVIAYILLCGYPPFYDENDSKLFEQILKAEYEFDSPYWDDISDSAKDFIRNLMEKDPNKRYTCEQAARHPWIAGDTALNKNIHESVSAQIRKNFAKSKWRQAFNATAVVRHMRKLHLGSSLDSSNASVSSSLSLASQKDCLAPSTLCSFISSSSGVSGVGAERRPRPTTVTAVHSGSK
Structure (SMILES),IC50 [1],ΔTm [2],ΔTm [3],ΔTm [4],ΔTm [5]
O=C1NC(=O)c2c1c1c3ccccc3[nH]c1n1cncc21 [ISOGRANULATIMIDE],100 nM,1 °C,2.2 °C,2.5 °C,1.7 °C
NC1=N/C(=C2/CCNC(=O)c3[nH]ccc32)C(=O)N1 [DEBROMOHYMENIALDISINE],3000 nM,0 °C,2.3 °C,2.6 °C,1.3 °C
CN1CCc2[nH]c(=S)c(C#N)c(-c3cccs3)c2C1,1400 nM,1.3 °C,7.8 °C,–,–
